One series has as its system SH-SY5Y. Nature of the series: Cytotoxicity in human neuroblastoma cell line (MTT/MTS). The settings on record: 72 h. Format: cell-based. Here is the method: Toxicity analysis was performed in the human neuroblastoma cell line (SH-SY5Y), which was cultured in Dulbecco’s Modified Eagle Medium (DMEM, Gibco) supplemented with 2 mM L-glutamine (Invitrogen, Thermo Fisher Scientific Inc. Waltham, MA, USA), […] streptomycin (Invitrogen), 100 IU/mL penicillin (Invitrogen), 1 mM non-essential amino acids (Invitrogen) and 10% (v/v) heat inactivated fetal bovine serum (Sigma Aldrich, Burlington, MA, USA) and grown at 37 °C in a humidified incubator with 5% CO2. […] After 72 h of incubation, cell growth was estimated by the colorimetric MTT assay (CellTiter 96® aqueous one solution cell proliferation assay-MTS, Promega, Madison, WI, USA) according to the manufacturer’s protocol. Absorbance was read at 490 nm and results were expressed as % from the control condition considered as 100%.

The next series concerns the target T1, S2R (Homo sapiens, UniProt Q5BJF2).
T1 construct: host or cells: Jurkat cell membranes
Nature of the series: S2R binding assay, [3H]-DTG, Jurkat cell membranes. Here is the method:
(§1) The binding assays were performed by Eurofins Cerep (Poitiers, France) according to Ganapathy. Briefly, S1R)binding assay was carried out by incubating Jurkat cell membranes ([…] protein per tube) with [^3H] (+)-pentazocine (15 nM) and a range of concentrations of test compounds at 37 °C for 2 h in 5 mM Tris HCl buffer (pH = 7.4). The S2R binding assay was performed by incubating Jurkat cell membranes ([…] protein per tube) with [^3H]-DTG (25 nM) in the presence of (+)-pentazocine (1 mM), to saturate S1R, and a range of concentrations of test compounds at room temperature for 1 h in 5 mM Tris HCl buffer (pH = 7.4). Bound radioactivity was measured using liquid scintillation counting. Nonspecific binding was determined in both assays, under similar conditions, as remaining in the presence of […] unlabeled haloperidol. Inhibition constants (Ki) were calculated from the IC50 values according to the method of Cheng and Prusoff.

Series [1] deals with T2, S1R (Homo sapiens, UniProt Q99720).
T2 construct: host or cells: Jurkat cell membranes
As to the kind of experiment: S1R binding assay, [3H](+)-pentazocine, Jurkat cell membranes. Here is the method: as §1

For another series, the system named is S. typhimurium TA102. The settings on record: Salmonella typhimurium.
In the next series the test system is S1R–BiP complex. As to the kind of experiment: S1R-BiP dissociation assay in CHO cells (co-IP, ELISA). Format: cell-based. Here is the method: The activity of compound 7i was evaluated in regard to its ability to dissociate the S1R–BiP complex. The S1R–BiP dissociation assay was performed by Amylgen (Montferrier-sur-Lez, France) as described in [13, 79]. Briefly, CHO cells were treated with test compounds for 30 min (37 °C). Crosslinking was performed with dithiobis succinimidyl propionate (DSP; Thermoscientific, Waltham, MA, USA). Lysis was performed after incubation for 15 min on ice. After centrifugation, supernatants were incubated overnight (4 °C) with the S1R antibody (Abcam, Cambridge, UK). Lysates were incubated with Sepharose Protein-A (Invitrogen). After the first centrifugation, the pellet was resuspended in radioimmunoprecipitation assay (RIPA) buffer. After a second centrifugation, the pellet was resuspended in 2× sample buffer/bMCE buffer. After the third centrifugation, supernatants were analyzed for BiP immunoreactivity (SEC343Mu ELISA, USCNK Life Sciences, Wuhan, China).
Background: An ELISA detects its analyte on a solid surface through an enzyme-linked reagent.

Series [2] addresses T2, S1R. Also noted: method as in PMID 28756263. The settings on record: selectivity index; cited from earlier work.
A further series concerns S. typhimurium TA100. The settings on record: 7i 40 µg/plate.
Series [3] in a line: Pharmacokinetic study in plasma and brain. Format: in vivo, male C57BL/6 mice. The settings on record: 1 mg/kg; for Brain/Plasma / Kp at 0.5 h: at 30 min; for Brain AUC t^∞/AUC ∞: unit assumed; for Kp at 0.5 h / Tmax / half-life / concentration at 30 min / bioavailability: male, C57BL/6, mouse. Here is the method:
A pharmacokinetic (PK) study was performed by Eurofins Cerep (Poitiers, France) in male C57BL/6 mice (20–30 g) following i.v. and p.o. administrations of compound 7i at 1 mg/kg.
The plasma and perfused brain samples were collected at 0, 30, 60, 120, 240 and 280 min after treatment administration (n = 3 animal/time point). Animals were terminated under inhalant CO2 euthanasia. Blood was collected via cardiac puncture. Aliquots were collected in tubes coated with lithium heparin and centrifuged. The plasma was harvested and kept frozen at −70 °C until further processing. Immediately following the collection of the blood sample, animals were perfused with heparinized saline (10 IU/mL). The brain was collected, rinsed with saline to remove residual blood, weighed and stored at −70 °C until further analysis.
Plasma samples were processed using acetonitrile precipitation and analyzed by LC-MS/MS. A plasma calibration curve was generated. Aliquots of drug-free plasma were spiked with compound 7i at the specified concentration levels. The spiked plasma samples were processed together with the unknown plasma samples using the same procedure.
Each brain was homogenized for 10 s on ice in a proper volume of cold phosphate-buffered saline (PBS) at pH 7.4. The homogenate was centrifuged at 5400× g for 15 min at 4 °C. Supernatants were subsequently processed using acetonitrile precipitation and analyzed by LC-MS/MS. A brain calibration curve was generated. Aliquots of drug-free brain homogenate were spiked with compound 7i at the specified concentration levels. The spiked brain homogenate samples were processed together with the unknown brain homogenate samples using the same procedure.
Concentrations of compound 7i in the unknown plasma and brain samples were determined using the respective calibration curve. The reportable linear range of the assay was determined, along with the lower limit of quantitation (LLQ).
The exposure levels of compound 7i in the plasma and brain samples as determined by LC-MS/MS were reported (ng/mL). The [brain]/[plasma] ratios were calculated.
Pharmacokinetic modeling was performed using the non-compartmental method based on statistical moments. In this method, exchanges between kinetic spaces are expressed in time. The curves were obtained using R software (Package ggplot2, v3.3.6).

SMILES strings stand for the structures. “And” between values parts separate entries of the source, which are not always exact repeats. Equal entries are not always repeated. Where two headings read alike, the source gives them in different places.

T2 sequence (Q99720 whole entry): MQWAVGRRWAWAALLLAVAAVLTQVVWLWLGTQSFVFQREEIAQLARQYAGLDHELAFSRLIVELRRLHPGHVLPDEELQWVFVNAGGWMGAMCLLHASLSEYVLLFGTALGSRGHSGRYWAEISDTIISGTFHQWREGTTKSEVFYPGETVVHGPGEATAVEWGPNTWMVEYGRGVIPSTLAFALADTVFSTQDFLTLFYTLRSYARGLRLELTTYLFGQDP
T1 sequence (Q5BJF2 whole entry): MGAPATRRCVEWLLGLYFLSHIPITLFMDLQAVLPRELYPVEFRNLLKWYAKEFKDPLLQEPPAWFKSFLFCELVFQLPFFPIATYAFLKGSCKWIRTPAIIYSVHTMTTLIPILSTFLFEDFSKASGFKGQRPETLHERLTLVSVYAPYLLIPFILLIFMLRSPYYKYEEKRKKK

The inhibition is the percentage by which the read-out fell short of the control. Low readings indicate little suppression, high ones strong suppression. As usually defined, the Ki is the dissociation constant of the complex between target and ligand, obtained from inhibition or displacement. Lower therefore signals higher affinity. In turn, `O=C(NCCCNCc1ccccc1)c1ccc(Cl)cc1` [compound 7i-deMe] gave an inhibition at 100 µM in the series with SH-SY5Y of 77%. Further, the Ki on S2R was > 1000 nM; at S1R [1] it was 23 nM.
For orientation: Kp means tissue or fluid exposure divided by exposure in the circulation. In general, Tmax refers to the time at which the peak concentration occurs. As a reminder, the bioavailability is the share of a dose that reaches the circulation, judged against a reference dose that is usually intravenous. On to `CN(CCCNC(=O)c1ccc(Cl)cc1)Cc1ccccc1` [compound 7i], for which the “Ames TA102 +S9 (Mean revertants/well per title)” value in the series on S. typhimurium TA102 was determined as 1.0. Moreover, in the series on S. typhimurium TA102, the “Ames TA102 −S9 (Mean revertants/well per title)” value is listed as 0.7. Besides, the “effect on S1R–BiP association” value in the series with S1R–BiP complex (1 and 10 µM, 30-min incubation) was “significantly causes a dose-dependent dissociation”. Besides, the S1R functional activity entry in the series on S1R–BiP complex (S1R–BiP dissociation blocked by NE-100) is “agonist capacity”. In the series on S1R–BiP complex (co-treatment with NE-100 (10 µM)), the “effect on S1R–BiP dissociation in presence of NE-100” value is on record as “blocked”. Besides, the “S1R antagonist capacity (co-treatment with PRE-084)” value in the series on S1R–BiP complex (co-treatment with PRE-084 (10 µM)) is “absence of antagonist capacity”. For the same compound, the “Ki Ratio S2R/S1R” value on S1R [2] was 60. For the same compound, the “Ames TA100 +S9 (Mean revertants/well per title)” value with S. typhimurium TA100 (+S9, positive control 2-anthramine 0.5) amounted to 0.9. In addition, in the series with S. typhimurium TA100 (−S9, positive control MNNG 0.25), the “Ames TA100 −S9 (Mean revertants/well per title)” value came to 0.9. The “increase of total clearance, p.o. versus i.v.” value in series [3] is 20 times. Further, the “C30 after i.v. relative to p.o.” value in series [3] (in the plasma or in the brain) is reported as “more than 10 times”. The CLT stood at 3.8 mL/min in series [3] (i.v.) and 74.9 mL/min in series [3] (p.o.). Besides, the CLbrain is 1.8 mL/min in series [3] (i.v.) and 12.8 mL/min in series [3] (p.o.). Further, the “D (diffusion in the brain)” value in series [3] (i.v.) is 62% and 61.7%. For the same compound, the MAT in series [3] (i.v.) stood at 0 min; in series [3] (p.o.), 16.5 min. Moreover, the “Plasma AUC t^∞/AUC ∞” value in series [3] (i.v.) came to 0.9; in series [3] (p.o.), 6.1. The results for the Brain/Plasma in series [3] (i.v.) and in series [3] (p.o.) were 2.9 and 3.2, respectively. The Brain AUC t^∞/AUC ∞ in series [3] (i.v., brain) is 5.9%; in series [3] (p.o., brain), 7.6%. Besides, the “Plasma Cmax (simulated)” value in series [3] (i.v., mouse plasma, simulated) is listed as 180 ng/mL. Besides, the Kp at 0.5 h in series [3] (brain, iv) amounted to 3; in series [3] (brain, po) it was 3. For the same compound, the time to peak (Tmax) is ≤ 30 min in series [3] (brain, iv, i.v., brain, read-out: Brain tmax); ≤ 30 min in series [3] (brain, po, p.o., brain, read-out: Brain tmax); 0 min in series [3] (plasma, iv, i.v., mouse plasma, read-out: Plasma tmax); < 30 min in series [3] (plasma, po, p.o., mouse plasma, read-out: Plasma tmax). For the same compound, the half-life in series [3] (brain, iv, read-out: Brain t1/2 el) amounted to 96.4 min; in series [3] (brain, po, read-out: Brain t1/2 el) it was 78.9 min; in series [3] (plasma, iv, read-out: Plasma t1/2 el), 44.5 min; in series [3] (plasma, po, read-out: Plasma t1/2 el) it was 25.5 min. Besides, the concentration at 30 min in series [3] (iv, brain, read-out: Brain C30) was determined as 234 ng/mL; in series [3] (plasma, iv, read-out: Plasma C30) it was 79.8 ng/mL; in series [3] (plasma, po, read-out: Plasma C30), 6.4 ng/mL; in series [3] (po, brain, read-out: Brain C30) it was 20.7 ng/mL. Further, the bioavailability turned out to be 100% in series [3] (plasma, iv) and 5% in series [3] (plasma, po). Besides, the Vd in series [3] (p.o.) amounted to 0.168 L/kg.

The values above are taken from article PMC9569529, “Safe and Efficient Sigma1 Ligand: A Potential Drug Candidate for Multiple Sclerosis” (International Journal of Molecular Sciences, 2022).
